Laboratory results as given in US6608027B1, “Macrocyclic peptides active against the hepatitis C virus” (Boehringer Ingelheim (Canada) Ltd, priority 1999, dated 2003).
Like-named read-outs stand apart in the source and are kept apart here.

Columns and labels:
HCV NS3 protease type 1b = HCV NS3 protease type 1b (Hepatitis C virus genotype 1b, UniProt P26663); assay: Recombinant HCV NS3 protease radiometric assay; type: biochemical
Experimental: The substrate used for the HCV NS3 protease radiometric assay, DDIVPC-SMSYTW (SEQ. ID NO.: 2), is cleaved between the cysteine and the serine residues by the enzyme. The sequence DDIVPC-SMSYTW (SEQ. ID NO.: 2) corresponds to the NS5A/NS5B natural cleavage site in which the cysteine residue in P2 has been substituted for a proline. The peptide substrate DDIVPC-SMSYTW (SEQ. ID NO.: 2) and the tracer biotin-DDIVPC-SMS[^125I-Y]TW (SEQ. ID NO.: 3) were incubated with the recombinant NS3 protease in the absence or in the presence of inhibitors. The separation of substrate from products was performed by adding avidin-coated agarose beads to the assay mixture followed by filtration. The amount of SMS[^125I-Y]TW (SEQ. ID NO.: 4) product found in the filtrate (with or without inhibitor) allowed for the calculation of the percentage of substrate conversion and of the percentage of inhibition.
Assay buffer: 50 mM Tris-HCl, pH 7.5, 30% (w/v) glycerol, 2% (w/ v) CHAPS, 1 mg/mL BSA, 1 mM TCEP (TCEP added just prior to use from a 1 M stock solution in water).
Substrate: DDIVPC-SMSYTW (SEQ. ID NO.: 2), 25 μM final concentration (from a 2 mM stock solution in DMSO stored at −20° C. to avoid oxidation).
Tracer: reduced mono-iodinated substrate(biotin-DDIVPC-SMS[^125I-Y]TW (SEQ. ID NO.: 3)) (≈1 nM final concentration).
HCV NS3 protease type 1b, 25 nM final concentration (from a stock solution in 50 mM sodium phosphate, pH 7.5, 10% glycerol, 300 mM NaCl, 5 mM DTT, 0.01% NP-40).
The assay was performed in a 96-well polypropylene plate. Each well contained:
20 μL substrate/tracer in assay buffer;
10 μL±inhibitor in 20% DMSO/assay buffer;
Blank (no inhibitor and no enzyme) and control (no inhibitor) were also prepared on the same assay plate.
The enzymatic reaction was initiated by the addition of the enzyme solution and the assay mixture was incubated for 60 min at 23° C. under gentle agitation. Twenty (20) μL of 0.025 N NaOH were added to quench the enzymatic reaction.
Twenty (20) μL of avidin-coated agarose beads (purchased from Pierce®) were added in a Millipore® MADP N65 filtration plate. The quenched assay mixture was transferred to the filtration plate, and incubated for 60 min at 23° C. under gentle agitation.
The plates were filtered using a Millipore® MultiScreen Vacuum Manifold Filtration apparatus, and 40 μL of the filtrate was transferred to an opaque 96-well plate containing 60 μL of scintillation fluid per well.
The filtrates were counted on a Packard® TopCount instrument using a ^125I-liquid protocol for 1 minute. The %inhibition was calculated with the following equation:
100−[(countsinh−countsblank)/(countsctl−countsblank)×100] […]

[1] = biological target: T1, His-NS3-NS4AFL (full-length NS3-NS4A protein complex) (Hepatitis C virus genotype 1b, UniProt P26663); assay: Full-length NS3-NS4A heterodimer protein fluorogenic assay; type: biochemical, HCV genotype 1b
T1 construct: made in house; host or cells: Sf21 insect cells, recombinant baculovirus (Bac-to-Bac, pFastBac HTa)
T1 sequence (P26663 1658-1711): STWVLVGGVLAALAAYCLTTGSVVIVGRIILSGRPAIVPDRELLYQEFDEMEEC
T1 sequence (P26663 1027-1657): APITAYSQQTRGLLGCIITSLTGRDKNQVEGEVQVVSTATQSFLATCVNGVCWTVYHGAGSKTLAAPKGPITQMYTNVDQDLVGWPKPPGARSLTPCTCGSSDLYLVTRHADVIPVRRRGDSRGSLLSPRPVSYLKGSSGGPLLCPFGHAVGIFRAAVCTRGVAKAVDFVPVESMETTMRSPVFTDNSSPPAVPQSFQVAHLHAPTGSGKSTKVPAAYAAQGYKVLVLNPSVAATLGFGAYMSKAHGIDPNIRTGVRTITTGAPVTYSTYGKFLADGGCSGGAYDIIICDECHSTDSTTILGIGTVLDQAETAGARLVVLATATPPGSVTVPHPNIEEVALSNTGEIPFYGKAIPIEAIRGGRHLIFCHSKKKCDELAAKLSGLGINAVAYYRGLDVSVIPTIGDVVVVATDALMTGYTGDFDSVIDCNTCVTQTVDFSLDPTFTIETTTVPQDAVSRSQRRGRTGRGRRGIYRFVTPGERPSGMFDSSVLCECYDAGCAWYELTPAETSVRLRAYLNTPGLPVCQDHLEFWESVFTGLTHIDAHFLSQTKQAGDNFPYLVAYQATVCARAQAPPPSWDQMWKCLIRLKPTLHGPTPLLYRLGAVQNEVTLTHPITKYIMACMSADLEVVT
Excerpt: The NS2-NS5B-3′non coding region was cloned by RT-PCR into the pCR®3 vector (Invitrogen) using RNA extracted from the serum of an HCV genotype 1b infected individual (provided by Dr. Bernard Willems, Hôpital St-Luc, Montréal, Québec, Canada). The NS3-NS4A region (NS3-NS4AFL) was then subcloned by PCR into the pFastBac™ HTa baculovirus expression vector (Gibco/BRL). The vector sequence includes a region encoding a 28-residue N-terminal sequence which contains a hexahistidine tag. The Bac-to-Bac™ baculovirus expression system (Gibco/BRL) was used to produce the recombinant baculovirus. His-NS3-NS4AFL was expressed by infecting 10^6 Sf21 cells/mL with the recombinant baculovirus at a multiplicity of infection of 0.1-0.2 at 27°. Authentic auto-proteolysis occurs during expression to produce a non covalent and stable NS3-NS4A protein complex (referred to as full-length “FL”). The infected culture was harvested 48 to 64 h later by centrifugation at 4°. The cell pellet was homogenized in 50 mM NaPO4, pH 7.5, 40% glycerol (w/v), 2 mM β-mercaptoethanol, in presence of a cocktail of protease inhibitors. His-NS3-NS4AFL was then extracted from the cell lysate with 1.5% NP-40, 0.5% Triton X-100, 0.5M NaCl, and a DNase treatment. After ultracentrifugation, the soluble extract was diluted 4-fold and bound on a Pharmacia Hi-Trap Ni-chelating column. The His-NS3-NS4AFL was eluted in a >90% pure form (as judged by SDS-PAGE), using a 50 to 400 mM imidazole gradient. The His-NS3-NS4AFL was stored at −80° in 50 mM sodium phosphate, pH 7.5, 10% (w/v) glycerol, 0.5 M NaCl, 0.25 M imidazole, 0.1% NP-40. It was thawed on ice and diluted just prior to use.
The protease activity of His-NS3-NS4AFL was assayed in 50 mM Tris-HCl, pH 8.0, 0.25 M sodium citrate, 0.01% (w/v) n-dodecyl-β-D-maltoside, 1 mM TCEP. Five (5) μM of the internally quenched substrate anthranilyl-DDIVPAbu[C(O)—O]-AMY(3-NO2)TW-OH (SEQ. ID NO.: 1) in presence of various concentrations of inhibitor were incubated with 1.5 nM of His-NS3-NS4AFL for 45 min at 23°. […] The reaction was terminated with the addition of 1M MES, pH 5.8. Fluorescence of the N-terminal product was monitored on a Perkin-Elmer LS-50B fluorometer equipped with a 96-well plate reader (excitation wavelength: 325 nm, emission wavelength: 423 nm).
The % inhibition was calculated with the following equation:
100−[(fluoinh−fluoblank)/(fluoctl−fluoblank)×100]
A non-linear curve fit with the Hill model was applied to the inhibition-concentration data, and the 50% effective concentration (IC50) was calculated by the use of SAS software (Statistical Software System; SAS Institute, Inc. Cary, N.C.).

[2] = asterisk (*) = radiometric assay of Example 49, read-out: enzyme activity (IC50 grade), asterisk
[3] = fluorogenic assay of Example 48, no asterisk, read-out: enzyme activity (IC50 grade)

Chain of HCV NS3 protease type 1b (P26663 1027-1208): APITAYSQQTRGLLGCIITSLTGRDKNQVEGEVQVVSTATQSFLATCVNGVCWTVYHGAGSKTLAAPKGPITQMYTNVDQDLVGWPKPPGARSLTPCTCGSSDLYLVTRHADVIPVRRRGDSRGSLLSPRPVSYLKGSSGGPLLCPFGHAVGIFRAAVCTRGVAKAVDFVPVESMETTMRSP

Molecule `COc1ccc2c(O[C@@H]3C[C@H]4C(=O)N[C@]5(C(=O)O)C[C@H]5CC/C=C\CS[C@@H](C)[C@H](NC(=O)OC(C)(C)C)C(=O)N4C3)cc(-c3ccccc3)nc2c1` [Compound 411] has an IC50 (HCV NS3 protease type 1b; [2]) of over 1 µM.
`COC(=O)[C@@]12CC1C=CCCCCC[C@H](NC(=O)OC(C)(C)C)C(=O)N1C[C@@H](O)C[C@H]1C(=O)N2` (stereo partly shown) gave a ring closure, yield of all isomers (from C=CCCCCC[C@H](NC(=O)OC(C)(C)C)C(=O)N1C[C@@H](O)C[C@H]1C(=O)N[C@]1(C(=O)OC)CC1C=C, rcm bond, Hoveyda's catalyst, CH2Cl2, 9.85 mM, 40.0 °C, 28.0 h) of 89%.
`COc1ccc2c(O[C@@H]3C[C@H]4C(=O)N[C@@]5(C(=O)O)C[C@@H]5/C=C\CCCCC[C@H](NC(=O)OC(C)(C)C)C(=O)N4C3)cc(-c3ccccc3)nc2c1` [Compound 210] showed an IC50 (HCV NS3 protease type 1b) of over 1 µM.
`COc1ccc2c(O[C@@H]3C[C@H]4C(=O)N[C@]5(C(=O)O)C[C@@H]5CCCCC[C@H](NC(=O)OC(C)(C)C)C(=O)N4C3)cc(-c3ccccc3)nc2c1` [Compound 306] showed an IC50 (HCV NS3 protease type 1b; [2]) of over 1 µM.
`COC(=O)[C@@]12C[C@H]1CCCCNCC[C@H](NC(=O)OC(C)(C)C)C(=O)N1C[C@H](Oc3cc(-c4ccccc4)nc4cc(OC)ccc34)C[C@H]1C(=O)N2` showed a ring closure, yield of all isomers (from COC(=O)[C@@]1(NC(=O)[C@@H]2C[C@@H](Oc3cc(-c4ccccc4)nc4cc(OC)ccc34)CN2C(=O)[C@H](CCNC(=O)OCc2ccccc2)NC(=O)OC(C)(C)C)C[C@H]1CCCC=O, amine bond, H2, Pd(OH)2, AcOH, ethanol, 44.0 mM, 25.0 °C, 40.0 h, 2 steps) of 30%.
`COc1ccc2c(O[C@@H]3C[C@H]4C(=O)N[C@]5(C(=O)O)C[C@H]5/C=C\COCCC[C@H](O)C(=O)N4C3)cc(-c3ccccc3)nc2c1` [Compound 305] showed an IC50 [1, 3] of 0.1 to 1 µM.
`COc1ccc2c(O[C@@H]3C[C@H]4C(=O)N[C@]5(C(=O)O)C[C@H]5/C=C\CCCCC[C@H](N)C(=O)N4C3)cc(-c3ccccc3)nc2c1` [Compound 211] showed an IC50 [1] of under 0.1 µM.
Work on `CC(C)(C)OC(=O)N[C@H]1CCC/C=C/CC[C@@H]2C[C@@]2(C(=O)O)NC(=O)[C@@H]2CC(Oc3ccnc4ccccc34)CN2C1=O` (stereo partly shown) [Compound 202] yielded an IC50 [1] of 0.1 to 1 µM.
In the case of `COc1ccc2c(O[C@@H]3C[C@H]4C(=O)N[C@]5(C(=O)O)CC5CC/C=C/CO[C@H](C)[C@H](NC(=O)OC(C)(C)C)C(=O)N4C3)cc(-c3ccccc3)nc2c1` (stereo partly shown) [Compound 404], the IC50 [1, 3] is reported as 0.1 to 1 µM.
`COc1ccc2c(O[C@@H]3C[C@H]4C(=O)N[C@]5(C(=O)O)C[C@H]5CCN(C)CCCC[C@H](NC(=O)OC(C)(C)C)C(=O)N4C3)cc(-c3ccccc3)nc2c1` [Cpd 504] gave an IC50 (HCV NS3 protease type 1b; [2]) of over 1 µM.
